Data from ChEMBL document CHEMBL1146707, “Mechanism-based active site modification of the soybean sterol methyltransferase by 26,27-dehydrocycloartenol” (Bioorg Med Chem Lett, 2004).

Assays:
Glycine max [1] = experiment: Catalytic competence for soybean sterol methyl transferase (SMT) assay was determined
Glycine max [2] = experiment: Catalytic competence for sterol methyl transferase (SMT) assay was determined
[3] = Apparent Ki value was calculated; design: species or system Glycine max
Glycine max [4] = experiment: Michaelis-Menten constant was evaluated for the soybean sterol methyl transferase (SMT) action
Glycine max [5] = experiment: Catalytic rate constant was evaluated for the soybean sterol methyl transferase (SMT) action
Glycine max [6] = experiment: Maximum rate of inactivation for the soybean sterol methyl transferase (SMT) action was determined
[7] = Ratio of kcat to kinact for the compound was determined
[8] = Compound (100 uM) and 26,27-DHC for 45 min
[9] = Compound (50 uM) and 26,27-DHC for 45 min

Activity (Glycine max [1]) | Activity (Glycine max [2]) | Ki [3] [µM] | Km (Glycine max [4]) [µM] | k cat (Glycine max [5]) [s⁻¹] | K inact (Glycine max [6]) [min⁻¹] | Ratio [7] | Activity [8] [%] | Activity [9] [%] | SMILES
3e-05 |  |  |  |  |  |  |  |  | C=C(CCC(C)C1CC[C@@]2(C)C3CCC4C(C)(C)C(O)CCC45CC35CCC12C)C(C)C (some centres not stated)
 | 3e-05 | 42 | 10 | 0.0003 | 0.29 | 0.06 |  |  | CC(CCC=C1CC1)C1CC[C@@]2(C)C3CCC4C(C)(C)C(O)CCC45CC35CCC12C (some centres not stated)
3e-05 |  |  | 30 | 0.01 |  |  | 33 | 48 | CC(C)=CCCC(C)C1CC[C@@]2(C)C3CCC4C(C)(C)C(O)CCC45CC35CCC12C (some centres not stated)
